Assay results reported in ChEMBL document CHEMBL1201862, “PubChem BioAssay data set” (2004).
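Grown in 96-well plates, cells were treated for 48 hours with each compound at five concentrations. Insufficient inhibition: endpoint recorded as highest concentration tested. At the GI50, growth is halved.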 Activity calls are given as the source filed them. Cut-off read from the data, not from the text of the source: active = GI50 up to about 1.1 µM and inactive = higher.

Experiments:
Assay in all cases: NCI anticancer screen, dose series, 48 h
NCI-H226 = system: NCI-H226
U-251 = system: U-251
OVCAR-4 = system: OVCAR-4
EKVX = system: EKVX
RXF 393 = system: RXF 393
CCRF-CEM = system: CCRF-CEM
A549 = system: A549
SW-620 = system: SW-620
K562 = system: K562
HCT-116 = system: HCT-116
UACC-62 = system: UACC-62
CAKI-1 = system: CAKI-1
OVCAR-8 = system: OVCAR-8
SK-MEL-5 = system: SK-MEL-5
A498 = system: A498
UO-31 = system: UO-31
UACC-257 = system: UACC-257
NCI-H23 = system: NCI-H23
SF-295 = system: SF-295
HT-29 = system: HT-29

Compound	GI50 (NCI-H226)	GI50 (U-251)	GI50 (OVCAR-4)	GI50 (EKVX)	GI50 (RXF 393)	GI50 (CCRF-CEM)	GI50 (A549)	GI50 (SW-620)	GI50 (K562)	GI50 (HCT-116)	GI50 (UACC-62)	GI50 (CAKI-1)	GI50 (OVCAR-8)	GI50 (SK-MEL-5)	GI50 (A498)	GI50 (UO-31)	GI50 (UACC-257)	GI50 (NCI-H23)	GI50 (SF-295)	GI50 (HT-29)
Cc1cccc2nc3c(C(=O)NCCN(C)C)cccc3cc12	1.07 µM (active)	2.52 µM (inactive)	1.83 µM (inactive)	1.99 µM (inactive)	1.45 µM (inactive)	1.25 µM (inactive)	1.09 µM (active)	1 µM (active)	1.8 µM (inactive)	0.668 µM (active)	1.68 µM (inactive)	0.07 µM (active)	1.07 µM (active)	1.64 µM (inactive)	1.37 µM (inactive)	1.27 µM (inactive)	0.893 µM (active)	2.07 µM (inactive)	1.51 µM (inactive)	0.791 µM (active)
COC(=O)c1c(O)ccc2c1c1c(n2Cc2cccc(C)c2)C(=O)c2ccccc2C1	19.7 µM (inactive)	14.5 µM (inactive)	0.126 µM (active)	0.0931 µM (active)	11.9 µM (inactive)	12.4 µM (inactive)	25.2 µM (inactive)	26.2 µM (inactive)	29.4 µM (inactive)	7.85 µM (inactive)	32.6 µM (inactive)	8.75 µM (inactive)	26.2 µM (inactive)	29.2 µM (inactive)	40.8 µM (inactive)	> 75 µM (inactive)	46.1 µM (inactive)	23.7 µM (inactive)	24.9 µM (inactive)	10.3 µM (inactive)
COc1ccc(C(=O)Cc2ccc(Cl)cc2)cc1OC	> 100 µM (inactive)	> 100 µM (inactive)	> 100 µM (inactive)	> 100 µM (inactive)	> 100 µM (inactive)	> 100 µM (inactive)	> 100 µM (inactive)	> 100 µM (inactive)	> 100 µM (inactive)	> 100 µM (inactive)	> 100 µM (inactive)	> 100 µM (inactive)	> 100 µM (inactive)	> 100 µM (inactive)	> 100 µM (inactive)	> 100 µM (inactive)	> 100 µM (inactive)	> 100 µM (inactive)	> 100 µM (inactive)	> 100 µM (inactive)
COc1cc(C2c3cc4c(cc3OC3(O)COC(=O)C23)OCO4)cc(OC)c1OC (stereo not given)	32.6 µM (inactive)	38.4 µM (inactive)	> 100 µM (inactive)	78.3 µM (inactive)	31.3 µM (inactive)	34.7 µM (inactive)	67.5 µM (inactive)	35 µM (inactive)	42.3 µM (inactive)	51.1 µM (inactive)	44.3 µM (inactive)	51.3 µM (inactive)	54 µM (inactive)	> 10 µM (inactive)	46.7 µM (inactive)	34.7 µM (inactive)	55 µM (inactive)	34.8 µM (inactive)	26.9 µM (inactive)	33.2 µM (inactive)
CC(=O)NNc1nc(C)c(C(=O)NNC(=O)C(=O)Nc2cccc(C(C)=O)c2)s1	22.8 µM (inactive)	26.6 µM (inactive)	25.2 µM (inactive)	42.7 µM (inactive)	16.5 µM (inactive)	23.2 µM (inactive)	34.8 µM (inactive)	39.5 µM (inactive)	32.1 µM (inactive)	31.8 µM (inactive)	16.3 µM (inactive)	16.4 µM (inactive)	20 µM (inactive)	95.3 µM (inactive)	20.7 µM (inactive)	17.1 µM (inactive)	23.1 µM (inactive)	17.5 µM (inactive)	31.4 µM (inactive)	50.2 µM (inactive)
COc1cc(C2(c3ncc[nH]3)SSSCC2O)ccc1O (stereo not given)	66.4 µM (inactive)	> 56.2 µM (inactive)	22.2 µM (inactive)	94 µM (inactive)	30.1 µM (inactive)	11.9 µM (inactive)	> 57.4 µM (inactive)	33 µM (inactive)	23.4 µM (inactive)	32.6 µM (inactive)	22.6 µM (inactive)	86.1 µM (inactive)	36.9 µM (inactive)	11.7 µM (inactive)	79.3 µM (inactive)	65.9 µM (inactive)	18.4 µM (inactive)	60.7 µM (inactive)	39.1 µM (inactive)	38 µM (inactive)
CC(C)C1NC(=O)CC(c2ccccc2)N(N=O)C1c1ccccc1 (stereo not given)	> 100 µM (inactive)	> 100 µM (inactive)	> 100 µM (inactive)	> 100 µM (inactive)	> 100 µM (inactive)	> 100 µM (inactive)	> 100 µM (inactive)	> 100 µM (inactive)	71.4 µM (inactive)	> 100 µM (inactive)	> 100 µM (inactive)	> 100 µM (inactive)	> 100 µM (inactive)	> 83.6 µM (inactive)	> 100 µM (inactive)	> 100 µM (inactive)	> 100 µM (inactive)	> 80.9 µM (inactive)	> 100 µM (inactive)	> 100 µM (inactive)
CO/C=C1\OC(=O)C=C1OC	> 100 µM (inactive)	> 31.6 µM (inactive)	> 100 µM (inactive)	> 100 µM (inactive)	> 100 µM (inactive)	> 100 µM (inactive)	> 100 µM (inactive)	> 100 µM (inactive)	> 100 µM (inactive)	> 100 µM (inactive)	> 100 µM (inactive)	> 100 µM (inactive)	> 100 µM (inactive)	> 100 µM (inactive)	> 100 µM (inactive)	> 100 µM (inactive)	> 100 µM (inactive)	> 100 µM (inactive)	> 100 µM (inactive)	> 100 µM (inactive)
CC1(C)COC(/C=C/C2=NC(C)(C)CO2)=N1	20.9 µM (inactive)	21.1 µM (inactive)	24.7 µM (inactive)	16.9 µM (inactive)	16.3 µM (inactive)	7.59 µM (inactive)	42.9 µM (inactive)	12.7 µM (inactive)	18.2 µM (inactive)	10.6 µM (inactive)	15.1 µM (inactive)	5.89 µM (inactive)	20.3 µM (inactive)	14 µM (inactive)	0.0401 µM (active)	18.6 µM (inactive)	29.6 µM (inactive)	23.2 µM (inactive)	42.2 µM (inactive)	21.2 µM (inactive)
Cc1c2cc[n+](Cc3ccc(I)cc3)cc2c(C)c2c1[nH]c1ccccc12	0.552 µM (active)	0.21 µM (active)	0.546 µM (active)	1.19 µM (inactive)	0.893 µM (active)	0.448 µM (active)	0.849 µM (active)	0.912 µM (active)	0.643 µM (active)	0.574 µM (active)	1.12 µM (active)	0.714 µM (active)	0.685 µM (active)	0.49 µM (active)	0.697 µM (active)	3.14 µM (inactive)	0.646 µM (active)	0.65 µM (active)	0.296 µM (active)	0.857 µM (active)
